In patent publication US20100261711A1, “SELECTIVE ANTICONVULSANT AGENTS AND THEIR USES” (WiSys Technology Foundation, priority 2009, published 2010):
pKi: −log10 of the molar value. Like-named read-outs stand apart in the source and are kept apart here.

Key:
[1] = target: T1, GABAA/α4 (α4β3γ2 GABAA receptors) (Homo sapiens, UniProt P18507+P48169); assay: Competitive binding assay, [3H]flunitrazepam
T1 construct: expressed in transfected cells
Description: (§1) The GABAA subunit selectivity of several compounds prepared as described above were determined using competitive binding assays. […] Membranes were harvested with a Brandel cell harvester followed by three ice-cold washes onto polyethyleneimine-pretreated (0.3%) Whatman GF/C filters. Filters were dried overnight and then soaked in Ecoscint, a liquid scintillation cocktail (National Diagnostics; Atlanta, Ga.). Bound radioactivity was quantified by liquid scintillation counting. Membrane protein concentrations were determined using an assay kit from Bio-Rad (Hercules, Calif.) with bovine serum albumin as the standard.

[2] = target: T2, GABAA/α6 (α6β3γ2 GABAA receptors) (Homo sapiens, UniProt P18507+Q16445); assay: Competitive binding assay, [3H]flunitrazepam
T2 construct: expressed in transfected cells
Description: as §1

MES-induced seizures = assay: Maximal electroshock test (MES), mice; type: in vivo; conditions: Mice IP
Description: (§2) The benzodiazepine derivative compounds selective for GABAa receptor subunits were tested for the ability to suppress seizures in several standard rat and mouse models of epilepsy. […] The standard models incorporated into anticonvulsant screening include the maximal electroshock test (MES), the subcutaneous Metrazol test (scMet), and evaluations of toxicity (TOX). The data for each condition is presented as a ratio of either the number of animals protected or toxic (loss of locomotor activity) over the number of animals tested at a given time point and dose.
The MES is a model for generalized tonic-clonic seizures and provides an indication of a compound's ability to prevent seizure spread when all neuronal circuits in the brain are maximally active. These seizures are highly reproducible and are electrophysiologically consistent with human seizures. For all tests based on MES convulsions, 60 Hz of alternating current (50 mA in mice, 150 in rats) is delivered for by corneal electrodes which have been primed with an electrolyte solution containing an anesthetic agent (0.5% tetracaine HCL). For Test 1, mice are tested at various intervals following doses of 30, 100 and 300 mg/kg of test compound given by ip injection of a volume of 0.01 mL/g. In Test 2, rats are tested after a dose of 30 mg/kg (po) in a volume of 0.04 mL/g. Test 8 uses varying doses administered via i.p. injection, again in a volume of 0.04 ml/g. […] In Antiepileptic Drugs, Levy, R. H. M., Meldrum, B. S., Eds.; Raven Press: New York, pp 99-110, 1995b.).

[3] = test system: Metrazol-induced clonic seizures; assay: Subcutaneous Metrazol test (scMet), mice; type: in vivo; conditions: Mice IP
Description: as §2
(§3) Subcutaneous injection of the convulsant Metrazol produces clonic seizures in laboratory animals. […] Animals are pretreated with various doses of the test compound (in a similar manner to the MES test, although a dose of 50 mg/kg (po) is the standard for Test 2 scMet). At the previously determined TPE of the test compound, the dose of Metrazol which will induce convulsions in 97% of animals (CD97: 85 mg/kg mice) is injected into a loose fold of skin in the midline of the neck. […] An episode of clonic spasms, approximately 3-5 seconds, of the fore and/or hindlimbs, jaws, or vibrissae is taken as the endpoint.

[4] = test system: minimal muscular or neurological impairment; assay: Toxicity (TOX), rotorod procedure, mice; type: in vivo; conditions: Mice IP
Description: as §2
(§4) To assess a compound's undesirable side effects (toxicity), animals are monitored for overt signs of impaired neurological or muscular function. […] When a mouse is placed on a rod that rotates at a speed of 6 rpm, the animal can maintain its equilibrium for long periods of time. The animal is considered toxic if it falls off this rotating rod three times during a 1-min period. In rats, minimal motor deficit is indicated by ataxia, which is manifested by an abnormal, uncoordinated gait. Rats used for evaluating toxicity are examined before the test drug is administered, since individual animals may have peculiarities in gait, equilibrium, placing response, etc., which might be attributed erroneously to the test substance.

[5] = test system: Metrazol-induced clonic seizures; assay: Subcutaneous Metrazol test (scMet), rats; type: in vivo; conditions: Rat PO, 50 mg/kg
Description: as §2, §3

[6] = test system: minimal motor deficit (ataxia, abnormal gait); assay: Toxicity (TOX), minimal motor deficit, rats; type: in vivo; conditions: Rat PO, 50 mg/kg
Description: as §2, §4

6 Hz psychomotor seizure = assay: Minimal clonic seizure (6 Hz) test; type: in vivo; conditions: Mice IP; for ED50: Mus musculus, ip, 1 h, 1 Hr, read-out: ED50 (6 Hz)
Source text: Like the maximal electroshock (MES) test, the minimal clonic seizure (6 Hz) test is used to assess a compound's efficacy against electrically-induced seizures but uses a lower frequency (6 Hz) and longer duration of stimulation (3 s). Test compounds are pre-administered to mice via ip injection. […] Untreated mice will display seizures characterized by a minimal clonic phase followed by stereotyped, automatistic behaviors described originally as being similar to the aura of human subjects with partial seizures. Animals not displaying this behavior are considered protected (Table 10).

[7] = target: T3, GABAA/α1 (α1β3γ2 GABAA receptors) (Homo sapiens, UniProt P14867+P18507); assay: Competitive binding assay, [3H]flunitrazepam
T3 construct: expressed in transfected cells
Description: as §1

[8] = target: T4, GABAA/α2 (α2β3γ2 GABAA receptors) (Homo sapiens, UniProt P18507+P47869); assay: Competitive binding assay, [3H]flunitrazepam
T4 construct: expressed in transfected cells
Description: as §1

[9] = target: T5, GABAA/α3 (α3β3γ2 GABAA receptors) (Homo sapiens, UniProt P18507+P34903); assay: Competitive binding assay, [3H]flunitrazepam
T5 construct: expressed in transfected cells
Description: as §1

[10] = target: T6, GABAA/α5 (α5β3γ2 GABAA receptors) (Homo sapiens, UniProt P18507+P31644); assay: Competitive binding assay, [3H]flunitrazepam
T6 construct: expressed in transfected cells
Description: as §1

[11] = Binding Affinity at GABAA/α3, αxβ3γ2, [3H]flunitrazepam competition
[12] = Binding Affinity at GABAA/α5, αxβ3γ2, [3H]flunitrazepam competition
[13] = Binding Affinity at GABAA/α1, αxβ3γ2, [3H]flunitrazepam competition
[14] = Binding Affinity at GABAA/α2, αxβ3γ2, [3H]flunitrazepam competition

C#Cc1ccc2c(c1)C(c1ccccc1F)=NC(C)c1c(C(=O)OCC)ncn1-2 (single isomer, unassigned) [SH-053-2′F-S-CH3, 8-Ethynyl-6-(2-fluorophenyl)-4-methyl-4H-2,5,10b-triazabenzo[e]azulene-3-carboxylic acid ethyl ester]
pKi [1]: < 5.30 | pKi [2]: < 5.30 | MES, animals protected/tested (MES-induced seizures; 30 mg/kg, 0.5 Hr): 0/1 | MES, animals protected/tested (MES-induced seizures; 30 mg/kg, 4.0 Hr): 0/1 | MES, animals protected/tested (MES-induced seizures; 100 mg/kg, 0.5 hr): 0/3 | MES, animals protected/tested (MES-induced seizures; 100 mg/kg, 4.0 hr): 0/3 | MES, animals protected/tested (MES-induced seizures; 300 mg/kg, 0.5 Hr): 0/1 | MES, animals protected/tested (MES-induced seizures; 300 mg/kg, 4.0 Hr): 0/1 | scMet, animals protected/tested ([3]; 30 mg/kg, 0.5 Hr): 0/1 | scMet, animals protected/tested ([3]; 30 mg/kg, 4.0 Hr): 0/1 | scMet, animals protected/tested ([3]; 100 mg/kg, 0.5 hr): 2/5 | scMet, animals protected/tested ([3]; 100 mg/kg, 4.0 hr): 0/1 | scMet, animals protected/tested ([3]; 300 mg/kg, 0.5 Hr): 1/1 | scMet, animals protected/tested ([3]; 300 mg/kg, 4.0 Hr): 0/1 | TOX (Rotorod Test), animals toxic/tested ([4]; 30 mg/kg, 0.5 Hr): 0/4 | TOX (Rotorod Test), animals toxic/tested ([4]; 30 mg/kg, 4.0 Hr): 0/2 | TOX (Rotorod Test), animals toxic/tested ([4]; 100 mg/kg, 0.5 hr): 1/8 | TOX (Rotorod Test), animals toxic/tested ([4]; 100 mg/kg, 4.0 hr): 0/4 | TOX (Rotorod Test), animals toxic/tested ([4]; 300 mg/kg, 0.5 Hr): 2/4 | TOX (Rotorod Test), animals toxic/tested ([4]; 300 mg/kg, 4.0 Hr): 0/2 | scMet, animals protected/tested ([5]; 0.5 h): 0/4 | scMet, animals protected/tested ([5]; 1.0 h): 0/4 | scMet, animals protected/tested ([5]; 2.0 h): 1/4 | scMet, animals protected/tested ([5]; 4.0 h): 0/4 | scMet, animals protected/tested ([5]; […]): 1/4 | Tox, animals toxic/tested ([6]; 0.5 h): 0/4 | Tox, animals toxic/tested ([6]; 1.0 h): 0/4 | Tox, animals toxic/tested ([6]; 2.0 h): 0/4 | Tox, animals toxic/tested ([6]; 4.0 h): 0/4 | Tox, animals toxic/tested ([6]; […]): 0/4 | 6 Hz Time to Peak Effect, protected/tested (6 Hz psychomotor seizure; 30 mg/kg, 22 mA, 1.0 Hr): 6/8 | 6 Hz Time to Peak Effect, protected/tested (6 Hz psychomotor seizure; 30 mg/kg, 22 mA, 2.0 Hr): 2/8 | 6 Hz Time to Peak Effect, protected/tested (6 Hz psychomotor seizure; 50 mg/kg, 22 mA, 0.5 Hr): 1/4 | 6 Hz Time to Peak Effect, protected/tested (6 Hz psychomotor seizure; 50 mg/kg, 22 mA, 1.0 Hr): 3/4 | 6 Hz Time to Peak Effect, protected/tested (6 Hz psychomotor seizure; 50 mg/kg, 22 mA, 2.0 Hr): 3/4 | 6 Hz Time to Peak Effect, protected/tested (6 Hz psychomotor seizure; 100 mg/kg, 22 mA, 0.25 Hr): 2/4 | 6 Hz Time to Peak Effect, protected/tested (6 Hz psychomotor seizure; 100 mg/kg, 22 mA, 0.5 Hr): 4/4 | 6 Hz Time to Peak Effect, protected/tested (6 Hz psychomotor seizure; 100 mg/kg, 22 mA, 1.0 Hr): 4/4 | 6 Hz Time to Peak Effect, protected/tested (6 Hz psychomotor seizure; 100 mg/kg, 22 mA, 2.0 Hr): 4/4 | 6 Hz Time to Peak Effect, protected/tested (6 Hz psychomotor seizure; 100 mg/kg, 22 mA, 4.0 Hr): 2/4 | 6 Hz Time to Peak Effect, protected/tested (6 Hz psychomotor seizure; 100 mg/kg, 32 mA, 0.25 Hr): 2/4 | 6 Hz Time to Peak Effect, protected/tested (6 Hz psychomotor seizure; 100 mg/kg, 32 mA, 0.5 Hr): 1/4 | 6 Hz Time to Peak Effect, protected/tested (6 Hz psychomotor seizure; 100 mg/kg, 32 mA, 1.0 Hr): 4/4 | 6 Hz Time to Peak Effect, protected/tested (6 Hz psychomotor seizure; 100 mg/kg, 32 mA, 2.0 Hr): 2/4 | 6 Hz Time to Peak Effect, protected/tested (6 Hz psychomotor seizure; 100 mg/kg, 32 mA, 4.0 Hr): 2/4 | ED50 (6 Hz psychomotor seizure; 22 mA): 14.2 mg/kg | ED50 (6 Hz psychomotor seizure; 32 mA): 71.2 mg/kg

C#Cc1ccc2c(c1)C(c1cccs1)=NCc1c(C(=O)OCC)ncn1-2 [JC 221 (76), Ethyl 8-acetyleno-6-(2′-thienyl)-4H-benzo[f]imidazo[1,5-a][1,4]diazepine-3-carboxylate]
pKi ([7]; αxβ3γ2, [3H]flunitrazepam competition, read-out: Binding Affinity at GABAA/α1): 6.84 | pKi ([8]; αxβ3γ2, [3H]flunitrazepam competition, read-out: Binding Affinity at GABAA/α2): 7.46 | pKi [9, 11]: 6.74 | pKi [10, 12]: 7.84 | pKi [2]: 6.44 | MES, animals protected/tested (MES-induced seizures; 100 mg/kg, 0.5 hr): 0/3 | MES, animals protected/tested (MES-induced seizures; 100 mg/kg, 4.0 hr): 0/3 | scMet, animals protected/tested ([3]; 100 mg/kg, 0.5 hr): 0/1 | scMet, animals protected/tested ([3]; 100 mg/kg, 4.0 hr): 0/1 | TOX (Rotorod Test), animals toxic/tested ([4]; 100 mg/kg, 0.5 hr): 0/8 | TOX (Rotorod Test), animals toxic/tested ([4]; 100 mg/kg, 4.0 hr): 0/4

C#Cc1ccc2c(c1)C(c1ccccc1)=NC(C)c1c(C(=O)OCC)ncn1-2 (single isomer, unassigned) [SH-053-R-CH3, 8-Ethynyl-4-methyl-6-phenyl-4H-2,5,10b-triaza-benzo[e]azulene-3-carboxylic acid ethyl ester]
pKi [7, 13]: 5.69 | pKi [8, 14]: 5.62 | pKi [9, 11]: 5.93 | pKi ([1]; read-out: Binding Affinity at GABAA/α4, αxβ3γ2, [3H]flunitrazepam competition): < 5.30 | pKi [10, 12]: 6.02 | pKi ([2]; read-out: Binding Affinity at GABAA/α6, αxβ3γ2, [3H]flunitrazepam competition): < 5.30

C#Cc1ccc2c(c1)C(c1ccccc1)=NC(C)c1c(C(=O)OCC)ncn1-2 (single isomer, unassigned) [SH-053-S-CH3, 8-Ethynyl-4-methyl-6-phenyl-4H-2,5,10b-triaza-benzo[e]azulene-3-carboxylic acid ethyl ester]
pKi [7, 13]: 5.78 | pKi [8, 14]: 5.90 | pKi [9, 11]: 5.90 | pKi [1]: < 5.30 | pKi [10, 12]: 6.69 | pKi [2]: < 5.30

C[Si](C)(C)C#Cc1ccc2c(c1)C(c1ccccc1F)=NCc1c(C(=O)OCC(F)(F)F)ncn1-2 [JYI-53, Trifluoroethyl-8-trimethylsilylacetylenyl-6-(2′-fluorophenyl)-4H-benzo[f]imidazo[1,5-a][1,4]diazepine-3-carboxylate]
pKi [7, 13]: 7.11 | pKi [8, 14]: 7.39 | pKi ([9]; αxβ3γ2, [3H]flunitrazepam competition, read-out: Binding Affinity at GABAA/α3): 6.74 | pKi ([10]; αxβ3γ2, [3H]flunitrazepam competition, read-out: Binding Affinity at GABAA/α5): 6.88 | pKi ([2]; αxβ3γ2, [3H]flunitrazepam competition, read-out: Binding Affinity at GABAA/α6): 5.44

CN1C(=O)CN=C(c2ccccc2)c2cc(Cl)ccc21 [Diazepam, reference compound]
pKi [1]: < 6.00 | pKi [2]: < 6.00

C#Cc1ccc2c(c1)C(c1ccccc1F)=NC(C)c1c(C(=O)OCC)ncn1-2 (single isomer, unassigned) [SH-053-2′F-R-CH3, 8-Ethynyl-6-(2-fluorophenyl)-4-methyl-4H-2,5,10b-triaza-benzo[e]azulene-3-carboxylic acid ethyl ester]
pKi [1]: < 5.30 | pKi [2]: < 5.30
